Experimental findings from US11161885B2, “Antimicrobial protein” (CONSUMO EM VERDE—BIOTECNOLOGIA DAS PLANTAS, S.A., priority 2010, dated 2021) are described below.

Assay type in all cases: cell-based
For assay [1], the system named is Listeria monocytogenes. The assay is described as follows: Time-kill curves for BLAD and/or EDTA. The note with it: EDTA at 0.1 mg/ml alone. Here is the method: (§1) • MIC—Minimum Inhibitory Concentration: the lowest concentration of an antimicrobial that inhibits the visible growth of a microorganism. • MFC/MBC—Minimum Fungicidal/Bactericidal Concentration (or Minimal Lethal Concentration): the lowest concentration of an antimicrobial agent needed to kill 99.9% of the initial inoculum after 24 h under a standardized set of conditions. • Time-kill curves—Determination of the “killing” of an isolate over time by one or more antimicrobial agents under controlled conditions is known as the time-kill method. It is a broth based method where the rate of killing of a fixed inoculum is determined by sampling control (organism, no drug) and antimicrobial agent-containing tubes or flasks, at certain time intervals, and determining the survivor colony count (cfu/ml) by spreading each sample onto an agar plate.
(§2) Time-kill curves for BLAD and/or EDTA with (A) Listeria monocytogenes, (B) Pseudomonas aeruginosa and (C) Candida albicans: see FIG. 9.

Assay [2] deals with Pseudomonas aeruginosa. As to the kind of experiment: Time-kill curves for BLAD and/or EDTA. The note with it: EDTA at 1 mg/ml alone. As for the experimental part: as §1, §2
The subject of assay [3] is Candida albicans. As to the kind of experiment: Time-kill curve and growth curve for BLAD and/or EDTA. As to conditions: EDTA at 0.1 mg/ml alone. As for the experimental part:
as §1, §2

In assay [4] the test system is Candida albicans. As to the kind of experiment: Growth curve in PDB pH 7 medium. The text has this:
Growth curve for BLAD with Candida albicans in PDB pH 7 medium: see FIG. 4.

Take `O=C(O)CN(CCN(CC(=O)O)CC(=O)O)CC(=O)O` [EDTA, ethylenediaminetetraacetic acid]: the “activity in time-kill curve” value is given as “neither BLAD at 10 μg/ml nor EDTA at 0.1 mg/ml inhibits growth” in assay [1], “bacteriostatic” in assay [2] and “fungistatic” in assay [3]. For the compound `C[C@@H]1[C@H](O)[C@@H](C)/C=C/C=C/C=C/C=C/C=C/C=C/C=C/[C@H](O[C@@H]2O[C@H](C)[C@@H](O)[C@H](N)[C@@H]2O)C[C@@H]2O[C@](O)(C[C@@H](O)C[C@@H](O)[C@H](O)CC[C@@H](O)C[C@@H](O)CC(=O)O[C@H]1C)C[C@H](O)[C@H]2C(=O)O` [amphotericin B], the “activity in growth curve” value in assay [4] (10 μg/ml) is “fungistatic”. As for `OC(Cn1cncn1)(Cn1cncn1)c1ccc(F)cc1F` [fluconazole], in assay [4] (100 μg/ml), the “activity in growth curve” value is given as “merely delays growth”.
